Converted amounts (≈) assume the structure as drawn. Like-named read-outs stand apart in the source and are kept apart here. Values belong to the compound of their own block, whether it stands above or below them.
Tests used:
[1] = target: T1, MRP (Homo sapiens, UniProt P33527); assay: ATP-dependent transport into membrane vesicles of MRP-overexpressing HL60/ADR cells; assay type: biochemical; set-up: HL60/ADR cells (human leukemia cells grown in adriamycin and overexpressing MRP); endogenous in cells; host or cells: HL60/ADR (Adriamycin-selected human HL60 leukemia cells), plasma membrane vesicles
Method: (§1) HL60/ADR cells (human leukemia cells grown in adriamycin and overexpressing MRP), revertant HL60 cells, and parental HL60 cells, respectively, were harvested by centrifugation after cultivation in cell culture and plasma membrane vesicles were prepared according to standard methods. Briefly, the cells were lysed by incubation in hypotonic buffer (0.5 mM sodium phosphate (pH 7.0), 0.1 mM EDTA supplemented with protease inhibitors) for 1.5 hours, followed by homogenization in a homogenizer. After centrifugation of the homogenate at 12,000×g(4° C., 10 minutes), the supernatant was centrifuged at 100,000×g at 4° C. for 45 minutes. […] After centrifugation at 280,000×g at 4° C. for 2 hours, the interphase was collected, washed by centrifugation in incubation buffer (100,000×g) and passed 20 times through a 27-gauge needle.
Membrane vesicles (50 μg of protein) were incubated in the presence of 4 mM ATP, 10 mM MgCl2, 10 mM of creatine phosphate, and the labeled substrate in an incubation buffer containing 250 mM sucrose and 10 mM Tris-HCl, pH 7.4. The final volume was 110 μl. Aliquots of 20 μl were taken at predetermined times and diluted in 1 ml of ice-cold incubation buffer. The dilute samples were filtered immediately through a nitrocellulose membrane (0.2 μm pore size), presoaked in incubation buffer using a rapid filtration device and rinsed twice with 5 ml incubation buffer. The filters were immersed in liquid and measured in a liquid scintillation counter. ATP was replaced by an equal concentration of 5′-AMP in a control experiment. All rates of the ATP-dependent transport were obtained by subtracting the values obtained in the presence of 5′-AMP from those measured in the presence of ATP.

[2] = system: membrane vesicles of parental and revertant HL60 cells; assay: ATP-dependent transport into membrane vesicles of parental and revertant HL60 cells (low MRP expression); assay type: biochemical, human; conditions: substrate 5 μM
Method: as §1
Membrane vesicles (50 μg of protein) were incubated in the presence of 4 mM ATP, 10 mM MgCl2, 10 mM of creatine phosphate, and the labeled substrate in an incubation buffer containing 250 mM sucrose and 10 mM Tris-HCl, pH 7.4. The final volume was 110 μl. […] The filters were immersed in liquid and measured in a liquid scintillation counter. […] All rates of the ATP-dependent transport were obtained by subtracting the values obtained in the presence of 5′-AMP from those measured in the presence of ATP.

[3] = target: T1, MRP; assay: ATP-dependent transport of [3H]etoposide glucuronide / [3H]etoposide into membrane vesicles from MRP-overexpressing cells; conditions: direct transport measurement in membrane vesicles
Description: FIG. 5, Panel A illustrates the ATP-dependent transport of [^3H]etoposide glucuronide into membrane vesicles from MRP-overexpressing cells. Panel B provides a comparison of MRP-mediated ATP-dependent transport of [^3H]etoposide glucuronide and [^3H]etoposide into membrane vesicles from MRP-overexpressing cells.

[4] = system: HL60/S cells; assay: Cytotoxicity of oncolytics in sensitive HL60/S cells; assay type: cell-based; conditions: Homo sapiens, HL-60
Description: (§2) See Marquardt, D., McCrone, S., and Center M. S., Cancer Res., 50: 1426, (1990). The mechanism(s) utilized by P190 to confer resistance to Adriamycin is not well understood but may involve the intracellular redistribution of Adriamycin away from the nucleus. See Marquardt, D. and Center, M. S., supra. Adriamycin is an inhibitor of topoisomerase II (Beck, W. T., Bull. Cancer, 77: 1131, (1990), which is an enzyme involved in DNA replication. Redistribution of Adriamycin away from the nucleus would therefore be an important component in cellular resistance to this drug. The studies published to date on P190 have utilized cell lines selected in vitro for resistance to Adriamycin (McGrath, T., Latoud, C., Arnold, S. T., Safa, A. R., Felsted, R. S., and Center, M. S., supra; Marquardt, D. and Center, M. S., supra; and Marquardt, D., McCrone, S., and Center M. S. Cancer Res., supra. The association of MRP (P190) with drug resistance was made by sodium dodecyl sulfate polyacrylamide gel electrophoresis (SDS-PAGE) of radioactive extracts prepared from Adriamycin-resistant HL60/Adr human leukemia cells labeled with 8-azido-alpha[^32P]ATP. See McGrath, T., Latoud, C., Arnold, S. T., Safa, A. R., Felsted, R. S., and Center, M. S., supra. The drug-resistance phenotype conferred by P190 is not limited to the anthracyclines. Epipodophyllotoxin resistance is linked to P190 expression. […]

[5] = system: HL60/ADR cells; assay: Cytotoxicity of oncolytics in doxorubicin-resistant HL60/Adr cells; assay type: cell-based; conditions: Homo sapiens
Description: as §2

T1 sequence (P33527 whole entry): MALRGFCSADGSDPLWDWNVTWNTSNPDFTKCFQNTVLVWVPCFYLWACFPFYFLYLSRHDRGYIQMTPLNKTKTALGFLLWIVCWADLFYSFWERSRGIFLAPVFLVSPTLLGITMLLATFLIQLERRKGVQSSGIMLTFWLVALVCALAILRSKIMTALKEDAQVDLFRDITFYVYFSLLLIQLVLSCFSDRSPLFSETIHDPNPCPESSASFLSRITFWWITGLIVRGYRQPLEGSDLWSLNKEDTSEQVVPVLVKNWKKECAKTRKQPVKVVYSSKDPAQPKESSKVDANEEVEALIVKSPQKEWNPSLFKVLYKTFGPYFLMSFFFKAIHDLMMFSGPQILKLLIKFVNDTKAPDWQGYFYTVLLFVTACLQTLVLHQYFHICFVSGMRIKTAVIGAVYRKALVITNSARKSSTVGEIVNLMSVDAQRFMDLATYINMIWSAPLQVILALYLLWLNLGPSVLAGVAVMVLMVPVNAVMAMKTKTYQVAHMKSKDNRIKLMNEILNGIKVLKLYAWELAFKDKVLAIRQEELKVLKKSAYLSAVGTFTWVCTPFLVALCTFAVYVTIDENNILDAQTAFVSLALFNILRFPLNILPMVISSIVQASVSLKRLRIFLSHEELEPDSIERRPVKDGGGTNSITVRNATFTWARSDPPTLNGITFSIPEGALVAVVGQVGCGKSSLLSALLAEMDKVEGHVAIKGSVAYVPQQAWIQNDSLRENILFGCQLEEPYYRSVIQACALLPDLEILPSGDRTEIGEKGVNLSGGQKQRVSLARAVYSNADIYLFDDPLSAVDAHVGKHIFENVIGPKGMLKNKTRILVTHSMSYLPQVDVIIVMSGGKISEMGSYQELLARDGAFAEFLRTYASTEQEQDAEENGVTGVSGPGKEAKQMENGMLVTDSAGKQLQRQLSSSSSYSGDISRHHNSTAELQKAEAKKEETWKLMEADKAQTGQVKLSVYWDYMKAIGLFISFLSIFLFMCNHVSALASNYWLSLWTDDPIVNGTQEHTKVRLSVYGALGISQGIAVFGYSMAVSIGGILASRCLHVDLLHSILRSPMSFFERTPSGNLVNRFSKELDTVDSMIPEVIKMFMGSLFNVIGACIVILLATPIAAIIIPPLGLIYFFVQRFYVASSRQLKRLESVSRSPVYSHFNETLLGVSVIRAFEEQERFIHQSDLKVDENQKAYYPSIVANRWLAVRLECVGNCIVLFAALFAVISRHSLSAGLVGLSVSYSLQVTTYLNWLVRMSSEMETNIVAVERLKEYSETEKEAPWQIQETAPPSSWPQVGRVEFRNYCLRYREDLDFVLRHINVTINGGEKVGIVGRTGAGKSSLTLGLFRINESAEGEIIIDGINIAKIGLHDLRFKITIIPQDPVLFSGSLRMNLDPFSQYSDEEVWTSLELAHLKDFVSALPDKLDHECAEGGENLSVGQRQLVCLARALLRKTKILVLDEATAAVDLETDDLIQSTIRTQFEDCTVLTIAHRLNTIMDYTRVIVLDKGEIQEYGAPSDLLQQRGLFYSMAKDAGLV

Compound: N[C@@H](CCC(=O)N[C@@H](CSc1ccc([N+](=O)[O-])cc1[N+](=O)[O-])C(=O)NCC(=O)O)C(=O)O [S-(2,4-dinitrophenyl-[^3H]glutathione, S-(2,4-dinitrophenyl)-[^3H]glutathione]
transport rate compared with HL60/ADR membranes [2]: 10 times less
rate of ATP-dependent transport ([1]; substrate 5 μM, HL60/ADR membranes): 50+4 pmol×mg protein^−1×min^−1

Compound: CCCCC/C=C\C\C=C/C=C/C=C/[C@@H](Sc1ccc(C(=O)O)cc1)[C@@H](O)CCCC(=O)O [BAY u9773]
type of inhibition of ATP-dependent LTC4 transport ([1]; double-reciprocal (Lineweaver and Burk) plot): competitive inhibition
Ki ([1]; inhibition of ATP-dependent transport of LTC4, vesicles of MRP-overexpressing cells, 37° C., 2 minutes, read-out: inhibition constant (Ki)): 700 nM

Compound: COc1cc([C@@H]2c3cc4c(cc3[C@@H](O[C@@H]3O[C@@H]5CO[C@@H](C)O[C@H]5[C@H](O)[C@H]3O)[C@H]3COC(=O)[C@H]23)OCO4)cc(OC)c1O[C@@H]1O[C@H](C(=O)O)[C@@H](O)[C@H](O)[C@H]1O [etoposide glucuronide]
substrate for MRP [3]: mediated by MRP

Compound: COc1cccc2c1C(=O)c1c(O)c3c(c(O)c1C2=O)C[C@@](O)(C(=O)CO)C[C@@H]3O[C@H]1C[C@H](N)[C@H](O)[C@H](C)O1 [Adriamycin, Doxorubicin]
IC50 [4]: 0.011 µg/mL (≈ 0.0202 µM)
IC50 ([5]; HL60/ADR): 2.2 µg/mL (≈ 4.05 µM)

Compound: COc1cc([C@@H]2c3cc4c(cc3[C@@H](O[C@@H]3O[C@@H]5CO[C@@H](C)O[C@H]5[C@H](O)[C@H]3O)[C@H]3COC(=O)[C@H]23)OCO4)cc(OC)c1O [Etoposide]
IC50 [4]: 0.39 µg/mL (≈ 0.663 µM)
IC50 ([5]; HL60/Adr cells (express P190), read-out: IC50): > 10 µg/mL
substrate for MRP [3]: not a substrate for MRP

Results, then the compound that gave them:

substrate for the MRP protein [1]: substrates
Compound: CCCCC/C=C\C\C=C/C=C/C=C/[C@@H](SC[C@H](N)C(=O)O)[C@@H](O)CCCC(=O)O [LTE4]

substrate for the MRP protein [1]: substrates
Compound: CCCCC/C=C\C\C=C/C=C/C=C/[C@@H](SC[C@H](N)C(=O)NCC(=O)O)[C@@H](O)CCCC(=O)O [LTD4]

From patent publication US6673813B2, “Methods for identifying and treating resistant tumors” (priority 1994, dated 2004)
